From patent US7268157B2, “Substituted arylalcanoic acid derivatives as PPAR pan agonists with potent antihyperglycemic and antihyperlipidemic activity” (Shenzhen Chipscreen Biosciences, Ltd., priority 2002, dated 2007)

Experiments:
obese rat = assay: Blood triglyceride and cholesterol in experimental obese rats; assay type: in vivo; details: 13-day treatment
[1] = Body weight and abdomen fat weight in experimental obese rats; assay type: in vivo, rat; details: for Abdomen Fat Weight: 15-day treatment

CN(CCOc1ccc(CC2SC(=O)NC2=O)cc1)c1ccccn1 (stereo not shown) [Rosiglitazone, reference compound]
Cholesterol (obese rat; 4 mg/kg): 112.7 ± 25.5 mg/dL
Triglyceride (obese rat; 4 mg/kg): 273.3 ± 87.4 mg/dL
Body Weight ([1]; 4 mg/kg, 0 day): 594.9 ± 169.3 g
Abdomen Fat Weight ([1]; 4 mg/kg): 63.1 ± 31.4 g
Body Weight ([1]; 4 mg/kg, 6 days): 604.5 ± 181.4 g
Body Weight ([1]; 4 mg/kg, 9 days): 601.6 ± 183.9 g
Body Weight ([1]; 4 mg/kg, 15 days): 596.4 ± 176.8 g

O=C(c1ccc(F)cc1)c1ccccc1NC(Cc1ccc(OCCn2c3ccccc3c3ccccc32)cc1)C(=O)O (stereo not shown) [CS-038, 2-[(2-(4-fluorobenzoyl)phenyl)amino]-3-[4-(2-carbazolylethoxy)-phenyl]-propionic acid]
Cholesterol (obese rat; 4 mg/kg): 98.4 ± 29.4 mg/dL
Triglyceride (obese rat; 4 mg/kg): 150.3 ± 52.1 mg/dL
Cholesterol (obese rat; 30 mg/kg): 86.6 ± 37.7 mg/dL
Triglyceride (obese rat; 30 mg/kg): 143.2 ± 61.8 mg/dL
Body Weight ([1]; 4 mg/kg, 0 day): 591.5 ± 130.0 g
Abdomen Fat Weight ([1]; 4 mg/kg): 55.8 ± 16.8 g
Body Weight ([1]; 4 mg/kg, 6 days): 580.8 ± 130.2 g
Body Weight ([1]; 4 mg/kg, 9 days): 575.2 ± 130.6 g
Body Weight ([1]; 4 mg/kg, 15 days): 569.4 ± 122.9 g
Body Weight ([1]; 30 mg/kg, 0 day): 580.5 ± 134.9 g
Abdomen Fat Weight ([1]; 30 mg/kg): 56.6 ± 21.1 g
Body Weight ([1]; 30 mg/kg, 6 days): 586.1 ± 143.2 g
Body Weight ([1]; 30 mg/kg, 9 days): 586.5 ± 144.2 g
Body Weight ([1]; 30 mg/kg, 15 days): 578.3 ± 176.8 g
body weight and abdomen fat increases ([1]; after 15-day drug treatment): does not induce body weight and abdomen fat increases
